Measured values taken from US20260294964A1, “PHARMACEUTICALS CONTAINING CHELATORS WITH STRONG ZN IONS-HOLDING FEATURE FOR THE TREATMENT OF SYMPTOMS AND DISEASES CAUSED BY MICROORGANISMS/DISEASES CAUSED BY TOXINS OR NEUROTOXINS/CANCER/SEVERAL SYNDROMES” (priority 2023, published 2026).
“Also recorded” adds a separate entry of the source. Where two headings read alike, the source gives them in different places.

How the values were obtained:
Boraras Micros fish [1] = assay: Protection of Boraras Micros fish from CuCl2 by chelators; assay type: in vivo; details: 0.4 ppm CuCl2 + a few ppm to more than 10 ppm of chelator
[2] = system: microorganisms that decompose organic matter (bacteria/fungi); assay: Culture of microorganisms that decompose organic matter; assay type: cell-based; details: media with growth promoting substances
[3] = system: pathogenic microorganisms; assay: Inhibition/killing of pathogenic microorganisms in water with Boraras Micros fish infected from dead fish; assay type: in vivo; details: for appearance of water after 6 days / fish outcome after 6 days: 10 ppm Ampicillin / 20 ppm Bactrim / 100 ppm triethylenetetramine diethylenetriaminepentaacetate / 300 Mg EDTA / 600 ppm Ca EDTA / combinations as in label
[4] = system: loss of taste in Covid 19; assay: Treatment of loss of taste in Covid 19; assay type: in vivo, human; details: solution containing 2% Ca EDTA sucked for a few minutes
[5] = Safety of Ca EDTA in adults; assay type: in vivo, human; details: 20 g for each time, 4 hours apart
Boraras Micros fish [6] = system: Boraras Micros fish
[7] = assay type: physicochemical, animal/human blood
Boraras Micros fish [8] = assay: Neutralization of toxins/neurotoxins in Boraras Micros fish; assay type: in vivo
[9] = system: dry eyes/eye pain/red eyes; assay: Treatment of dry eyes/eye pain/red eyes; assay type: in vivo, human; details: 0.1% eye drops, 2 to 6 times a day
headache = assay: Treatment of headaches of unknown cause; assay type: in vivo, human; details: 0.5 g oral, adult
mice = assay type: in vivo, mouse; details: 0.3% in drinking water from 12 hours after flocoumafen
[10] = system: toxins/neurotoxins; microorganisms; details: processed foods
[11] = Metallic Cu suspension test with 1% Na ascorbate (Cu ion complex formation); assay type: physicochemical; details: 0.1% CuCl2, alone or with several percent of chelator; excess 1% Na ascorbate

With O=C(O)CN(CCN(CC(=O)O)CC(=O)O)CC(=O)O.[Ca] [Ca EDTA, Ethylenediaminetetraacetic acid calcium] the “survival of fish in CuCl2 with chelator” value (Boraras Micros fish [1]) was “will not die after several weeks”, the “concentration at which proliferation of microorganisms is strongly inhibited” value [2] was 700 ppm and the “appearance of water after 6 days” value ([3]; calcium) was “clear; also recorded: transparent”. The “fish outcome after 6 days” value ([3]; calcium) was “lived; also recorded: did not die”, the “recovery of sweet taste” value [4] was “recover immediately afterwards” and the “amount used by adults in 24 hours without side effects” value [5] was “under 120 g”. For the same compound, the survival of fish (Boraras Micros fish [6]; in vivo) was “lived for many days”, the “time after which fish did not die” value (Boraras Micros fish [6]; in vivo) was ≥ 10 days and the “toxicity / safety to host cells” value (Boraras Micros fish [6]; in vivo) was “highly safe”.
For “triethylenetetramine diethylenetriaminepentaacetate”, the “survival of fish in CuCl2 with chelator” value (Boraras Micros fish [1]) was “will not die after several weeks”, the “concentration at which proliferation of microorganisms is strongly inhibited” value [2] was 100 ppm and the “volume that completely dissolves Zn-blood complex suspension” value ([7]; concentration of solution not given, suspension from 1.4 ml 0.1% ZnCl2 in 100 ml 0.9% NaCl with 1% blood) was 1.2 mL. For the same compound, the “amount needed to completely dissolve Zn-blood complex suspension, compared with lysine phosphate/lysine chloride/arginine phosphate/arginine chloride” value ([7]; suspension with 2 ppm ZnCl2) was “tens to hundreds of times lower”, the “survival of fish with Alpha Cypermethrin” value (Boraras Micros fish [8]; 0.2 ppm Alpha Cypermethrin + 50-300 ppm chelator) was “lived for many days” and the “survival of fish with Methylamine Avermectin” value (Boraras Micros fish [8]; 0.2 ppm Methylamine Avermectin + 50-300 ppm chelator) was “lived for many days”. The “survival of fish with Bromadiolone” value (Boraras Micros fish [8]; 0.3 ppm Bromadiolone + 50-300 ppm chelator) was “lived for many days”, the “survival of fish with phenylperazole” value (Boraras Micros fish [8]; 1.0 ppm phenylperazole + 50-300 ppm chelator) was “lived for many days” and the “survival of fish with flocoumafen” value (Boraras Micros fish [8]; 1.25 ppm flocoumafen + 50-300 ppm chelator) was “lived for many days (up to weeks)”. For the same compound, the “survival of fish with Emamectin benzoate” value (Boraras Micros fish [8]; 2.5 ppm Emamectin benzoate + 50-300 ppm chelator) was “lived for many days”, the “survival of fish with Nereistoxin” value (Boraras Micros fish [8]; 5 ppm Nereistoxin + 50-300 ppm chelator) was “lived for many days (up to weeks)” and the “appearance of water after 6 days” value [3] was “clear; also recorded: transparent”. For the same compound, the “fish outcome after 6 days” value [3] was “lived; also recorded: did not die”, the “concentration in host blood/tissue fluid/alveolar fluid above which ability to inhibit/kill pathogenic bacteria far exceeds Bactrim 10 ppm/Ampicillin 20 ppm” value ([3]; in vivo) was “above 60 ppm” and the “dry eyes/eye pain symptoms a few minutes after instilling” value [9] was “no longer exist”. The red eyes symptoms [9] was “decrease after a few hours”, the “time until headache symptoms significantly reduced” value (headache) was “about 2 hours” and the “survival of mice fed flocoumafen” value (mice) was “after many days the mice still lived”. The “concentration that inactivates toxins/neurotoxins while preventing proliferation of microorganisms” value [10] was “over 30 ppm”, the survival of fish (Boraras Micros fish [6]; 2000 ppm triethylenetetramine diethylnenepentaacetate / 3000 ppm Mg EDTA / 2000 ppm Cu EDTA / 12000 ppm Ca EDTA, mixtures at concentrations in label) was “lived for many days” and the “appearance of metallic Cu suspension” value [11] was “metallic Cu suspension will not appear”.
